Measured values: patent US8865733B2, “Medication and treatment for disease” (Altman Enterprises, LLC, priority 2008, dated 2014)

Tests used:
[1] = tested on: MS patients; details: LDN alone; cited from earlier work
[2] = tested on: MS patients; assay: Treatment of individual MS patients with the medication (case reports, Patients A, B, C); assay type: in vivo, human; details: Patient C; low dose naltrexone 3 mg daily before the medication
Description: Diagnosis was confirmed by an MRI of their brain, lumbar puncture, and visual evolved response.

O=C1CC[C@@]2(O)[C@H]3Cc4ccc(O)c5c4[C@@]2(CCN3CC2CC2)[C@H]1O5 [low dose naltrexone, naltrexone]
improvement of physical ability [1]: no improvement of physical ability
improvement under earlier treatment [2]: no improvement
